In patent publication US10800792B2, “Inhibitors of Bruton's tyrosine kinase and method of their use” (JANSSEN PHARMACEUTICA NV, priority 2015, dated 2020):

Molecular target: unphosphorylated-BTK kinase domain (UP-BTK), GST-tagged human BTK (389-659aa) (Homo sapiens (Human), UniProt Q06187)
Assay: BTK kinase Lanthascreen binding assay
Settings: unphosphorylated-BTK kinase domain, 50 nM Tracer 236, 60 minutes, pIC50 = negative log of the IC50 in molar; for IC50: read-out: BTK_I_binding pIC50 (converted)
In short: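 Lanthascreen competition binding; test compound vs fluorescent tracer on unphosphorylated BTK. Output: pIC50 (−log IC50, M).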

Chain of unphosphorylated-BTK kinase domain (UP-BTK), GST-tagged human BTK (389-659aa) (Q06187 389-659): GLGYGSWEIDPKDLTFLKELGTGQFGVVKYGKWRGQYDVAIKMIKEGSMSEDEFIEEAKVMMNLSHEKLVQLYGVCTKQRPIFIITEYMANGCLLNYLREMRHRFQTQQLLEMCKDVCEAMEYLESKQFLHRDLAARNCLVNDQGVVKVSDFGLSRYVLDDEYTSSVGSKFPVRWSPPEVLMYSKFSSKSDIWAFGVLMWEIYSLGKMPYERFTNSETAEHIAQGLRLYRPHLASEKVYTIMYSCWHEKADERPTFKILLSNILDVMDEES

| BTK_I_binding pIC50 | IC50 [nM] | SMILES |
| --- | --- | --- |
| 6.7 | – | Cc1ccccc1-c1cccc(N2C(=O)Nc3c(C(=O)N[C@@H]4CCCNC4)sc4nccc2c34)c1 [Example 554, (R)-5-(2′-Methyl-[1,1′-biphenyl]-3-yl)-4-oxo-N-(piperidin-3-yl)-4,5-dihydro-3H-1-thia-3,5,8-triazaacenaphthylene-2-carboxamide] |
| 7.5 | – | C=CC(=O)N1CCC[C@@H](NC(=O)c2sc3nccc4c3c2NC(=O)N4c2cnc(Oc3ccccc3)nc2)C1 [Example 556, (R)—N-(1-Acryloylpiperidin-3-yl)-4-oxo-5-(2-phenoxypyrimidin-5-yl)-4,5-dihydro-3H-1-thia-3,5,8-triazaacenaphthylene-2-carboxamide] |
| 7.3 | – | C=CC(=O)N1C[C@H](O)C[C@@H](NC(=O)c2sc3nccc4c3c2NC(=O)N4c2ccc(OC(C)C)cc2C)C1 [Example 557, N-((3R,5R)-1-Acryloyl-5-hydroxypiperidin-3-yl)-5-(4-isopropoxy-2-methylphenyl)-4-oxo-4,5-dihydro-3H-1-thia-3,5,8-triazaacenaphthylene-2-carboxamide] |
| 7.7 | – | C=CC(=O)N1CC[C@@H](NC(=O)c2sc3nccc4c3c2NC(=O)N4c2ccc(Oc3ccccc3)c(Cl)c2)C1 [Example 558, (R)—N-(1-Acryloylpyrrolidin-3-yl)-5-(3-chloro-4-phenoxyphenyl)-4-oxo-4,5-dihydro-3H-1-thia-3,5,8-triazaacenaphthylene-2-carboxamide] |
| 8.2 | – | N#C/C(=C\C1CC1)C(=O)N1CCC[C@@H](NC(=O)c2sc3nccc4c3c2NC(=O)N4c2ccnc(-c3ccccc3)c2)C1 [Example 559, (R,E)-N-(1-(2-Cyano-3-cyclopropylacryloyl)piperidin-3-yl)-4-oxo-5-(2-phenylpyridin-4-yl)-4,5-dihydro-3H-1-thia-3,5,8-triazaacenaphthylene-2-carboxamide] |
| 7.6 | – | C=CC(=O)N1CCC[C@@H](NC(=O)c2sc3nccc4c3c2NC(=O)N4c2cccc(OC3CCCCC3)c2)C1 [Example 560, (R)—N-(1-Acryloylpiperidin-3-yl)-5-(3-(cyclohexyloxy)phenyl)-4-oxo-4,5-dihydro-3H-1-thia-3,5,8-triazaacenaphthylene-2-carboxamide] |
| 7.3 | – | C=CC(=O)N1CCC[C@@H](NC(=O)c2sc3nccc4c3c2NC(=O)N4c2cccc(OC3CCCC3)c2)C1 [Example 561, (R)—N-(1-Acryloylpiperidin-3-yl)-5-(3-(cyclopentyloxy)phenyl)-4-oxo-4,5-dihydro-3H-1-thia-3,5,8-triazaacenaphthylene-2-carboxamide] |
| 6.7 | – | Cc1cc(OC(C)C)ccc1N1C(=O)Nc2c(C(=O)N[C@@H]3CCN(C(=O)/C=C/CN(C)C)C3)sc3nccc1c23 [Example 562, (R,E)-N-(1-(4-(Dimethylamino)but-2-enoyl)pyrrolidin-3-yl)-5-(4-isopropoxy-2-methylphenyl)-4-oxo-4,5-dihydro-3H-1-thia-3,5,8-triazaacenaphthylene-2-carboxamide] |
| 7.0 | – | C=CC(=O)N1CCC[C@@H](NC(=O)c2sc3nccc4c3c2NC(=O)N4c2cccc(-c3ccccc3C(F)(F)F)c2)C1 [Example 563, (R)—N-(1-Acryloylpiperidin-3-yl)-4-oxo-5-(2′-(trifluoromethyl)-[1,1′-biphenyl]-3-yl)-4,5-dihydro-3H-1-thia-3,5,8-triazaacenaphthylene-2-carboxamide] |
| 7.2 | – | Cc1cc(Oc2ccccc2)ccc1N1C(=O)Nc2c(C(=O)N[C@@H]3CCCN(C(=O)[C@H](C)CO)C3)sc3nccc1c23 [Example 564, N—((R)-1-((R)-3-Hydroxy-2-methylpropanoyl)piperidin-3-yl)-5-(2-methyl-4-phenoxyphenyl)-4-oxo-4,5-dihydro-3H-1-thia-3,5,8-triazaacenaphthylene-2-carboxamide] |
| 7.0 | – | C=CC(=O)N1CCC[C@@H](NC(=O)c2sc3nccc4c3c2NC(=O)N4c2cccc(OC(C)C)c2)C1 [Example 565, (R)—N-(1-Acryloylpiperidin-3-yl)-5-(3-isopropoxyphenyl)-4-oxo-4,5-dihydro-3H-1-thia-3,5,8-triazaacenaphthylene-2-carboxamide] |
| 6.6 | – | C=CC(=O)N1CCC[C@@H](NC(=O)c2sc3nccc4c3c2NC(=O)N4c2cccc(C(C)=O)c2)C1 [Example 566, (R)-5-(3-Acetylphenyl)-N-(1-acryloylpiperidin-3-yl)-4-oxo-4,5-dihydro-3H-1-thia-3,5,8-triazaacenaphthylene-2-carboxamide] |
| 7.4 | – | C=CC(=O)N1CC[C@@H](NC(=O)c2sc3nccc4c3c2NC(=O)N4c2ccnc(-c3ccccc3)c2)C1 [Example 567, (R)—N-(1-Acryloylpyrrolidin-3-yl)-4-oxo-5-(2-phenylpyridin-4-yl)-4,5-dihydro-3H-1-thia-3,5,8-triazaacenaphthylene-2-carboxamide] |
| 7.4 | – | C=CC(=O)N1CCC[C@@H](NC(=O)c2sc3nccc4c3c2NC(=O)N4c2cccc(OC(F)(F)F)c2)C1 [Example 568, (R)—N-(1-Acryloylpiperidin-3-yl)-4-oxo-5-(3-(trifluoromethoxy)phenyl)-4,5-dihydro-3H-1-thia-3,5,8-triazaacenaphthylene-2-carboxamide] |
| 7.0 | – | C=CC(=O)N1CCC[C@@H](NC(=O)c2sc3nccc4c3c2NC(=O)N4c2cccc(C3CC3)c2)C1 [Example 569, (R)—N-(1-Acryloylpiperidin-3-yl)-5-(3-cyclopropylphenyl)-4-oxo-4,5-dihydro-3H-1-thia-3,5,8-triazaacenaphthylene-2-carboxamide] |
| – | 63.1 | CN(C)C/C=C/C(=O)N1CC[C@@H](NC(=O)c2sc3nccc4c3c2NC(=O)N4c2cccc(-c3ccccc3)c2)C1 [Example 570, (R,E)-5-([1,1′-Biphenyl]-3-yl)-N-(1-(4-(dimethylamino)but-2-enoyl)pyrrolidin-3-yl)-4-oxo-4,5-dihydro-3H-1-thia-3,5,8-triazaacenaphthylene-2-carboxamide] |
| 7.0 | – | COC[C@@H](C)C(=O)N1CCC[C@@H](NC(=O)c2sc3nccc4c3c2NC(=O)N4c2ccc(Oc3ccccc3)cc2C)C1 [Example 571, N—((R)-1-((R)-3-Methoxy-2-methylpropanoyl)piperidin-3-yl)-5-(2-methyl-4-phenoxyphenyl)-4-oxo-4,5-dihydro-3H-1-thia-3,5,8-triazaacenaphthylene-2-carboxamide] |
| 7.1 | – | CN(C)CC(=O)N1CCC[C@@H](NC(=O)c2sc3nccc4c3c2NC(=O)N4c2ccc(Oc3ccccc3)c(Cl)c2)C1 [Example 572, (R)-5-(3-Chloro-4-phenoxyphenyl)-N-(1-(2-(dimethylamino)acetyl)piperidin-3-yl)-4-oxo-4,5-dihydro-3H-1-thia-3,5,8-triazaacenaphthylene-2-carboxamide] |
| 6.6 | – | CN(C)C/C=C/C(=O)N1CCC[C@@H](NC(=O)c2sc3nccc4c3c2NC(=O)N4c2cccc(-c3ccccc3)c2)C1 [Example 573, (R,E)-5-([1,1′-Biphenyl]-3-yl)-N-(1-(4-(dimethylamino)but-2-enoyl)piperidin-3-yl)-4-oxo-4,5-dihydro-3H-1-thia-3,5,8-triazaacenaphthylene-2-carboxamide] |
| – | 158 | C=CC(=O)N1CC[C@@H](NC(=O)c2sc3nccc4c3c2NC(=O)N4c2ccc(Oc3ccccc3)cc2)[C@@H](O)C1 [Example 574] |
